The values that follow come from patent publication US10160747B2, “Compounds and methods for kinase modulation, and indications therefor” (Plexxikon Inc., priority 2016, dated 2018).

As a reminder, the IC50 is the midpoint of a concentration-inhibition curve.

For one assay, the target named is T1, FLT3-ITD (Homo sapiens, UniProt P36888).
T1 sequence (P36888 1-993): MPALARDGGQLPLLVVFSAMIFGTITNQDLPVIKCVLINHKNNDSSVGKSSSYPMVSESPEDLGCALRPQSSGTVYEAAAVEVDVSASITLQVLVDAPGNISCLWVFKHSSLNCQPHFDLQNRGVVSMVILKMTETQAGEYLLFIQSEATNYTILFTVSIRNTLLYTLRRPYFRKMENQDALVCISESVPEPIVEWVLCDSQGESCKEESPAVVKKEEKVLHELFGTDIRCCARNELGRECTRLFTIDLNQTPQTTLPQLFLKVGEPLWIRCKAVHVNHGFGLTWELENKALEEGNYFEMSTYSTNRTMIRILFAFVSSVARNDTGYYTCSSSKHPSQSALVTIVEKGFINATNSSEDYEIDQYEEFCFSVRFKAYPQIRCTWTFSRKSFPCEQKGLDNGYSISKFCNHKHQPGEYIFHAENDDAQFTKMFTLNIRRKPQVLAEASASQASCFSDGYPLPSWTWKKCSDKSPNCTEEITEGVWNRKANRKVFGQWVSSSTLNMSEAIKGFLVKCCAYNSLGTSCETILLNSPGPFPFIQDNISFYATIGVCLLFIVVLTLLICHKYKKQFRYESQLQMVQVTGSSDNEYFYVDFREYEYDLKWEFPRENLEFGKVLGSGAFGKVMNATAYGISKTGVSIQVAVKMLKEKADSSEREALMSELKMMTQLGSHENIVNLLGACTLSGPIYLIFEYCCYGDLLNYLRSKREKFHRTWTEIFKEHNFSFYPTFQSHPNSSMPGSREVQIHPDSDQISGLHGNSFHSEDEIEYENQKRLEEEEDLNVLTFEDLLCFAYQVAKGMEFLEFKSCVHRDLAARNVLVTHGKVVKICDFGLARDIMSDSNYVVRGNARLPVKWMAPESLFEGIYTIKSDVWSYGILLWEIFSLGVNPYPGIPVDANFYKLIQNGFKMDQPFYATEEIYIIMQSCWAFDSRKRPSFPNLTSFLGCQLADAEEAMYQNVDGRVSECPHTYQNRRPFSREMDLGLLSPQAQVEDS
Kind of assay: FLT3-ITD recombinant enzyme kinase assay (AlphaScreen). The settings on record: 8 pt; read-out: FLT3_ITD 8 pt: IC50. The class given is biochemical. The gist of the method: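 AlphaScreen proximity signal at 580 nm, from PY20 acceptor and streptavidin donor beads, measures tyrosine phosphorylation of 30 nM biotin-poly(Glu4-Tyr) peptide by recombinant kinase. ATP: 10 μM (FLT3 mutants), 100 μM (c-KIT). IC50 from loss of signal.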
Background: Alpha assays give light when donor and acceptor beads are brought close together.

Assay [1] has as its system MOLM-14 D835Y (endogenous FLT3 ITD and transfected FLT3 D835Y). Briefly: MOLM-14 D835Y cell proliferation assay (CellTiter-Glo). To be noted: Homo sapiens, MOLM-14, 72 h; 3 d growth, GMean. The assay is classed as cell-based. The gist of the method:
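Three-day proliferation at 37 °C/5% CO2 of FLT3-ITD MOLM-14 lines with D835Y or F691L mutation, seeded 1×10^4 per well. Compounds at eight points, top 1 μM final, 0.2% DMSO. ATP luminescence (CellTiter-Glo) gives IC50.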
On the technique in general: ATP-based viability assays read luminescence as a measure of living cells.

Turning to `Cn1cc(Nc2ncc(-c3ccc(CC(=O)Nc4cncc(C(C)(F)F)c4)cc3)cn2)cn1` [Compound P-0144, N-[5-(1,1-difluoroethyl)-3-pyridyl]-2-[4-[2-[(1-methylpyrazol-4-yl)amino]pyrimidin-5-yl]phenyl]acetamide], the IC50 (at FLT3-ITD; in assay [1]) was 0.0001 to 10 µM each time.

On to `Cn1cc(Nc2ncc(-c3ccc(CC(=O)Nc4cnc(Cl)c(C(F)(F)F)c4)cc3)cn2)cn1` [Compound P-0145, N-[6-chloro-5-(trifluoromethyl)-3-pyridyl]-2-[4-[2-[(1-methylpyrazol-4-yl)amino]pyrimidin-5-yl]phenyl]acetamide], for which the IC50 (at FLT3-ITD; in assay [1]) was 0.0001 to 10 µM each time.

In the case of `Cn1cc(Nc2ncc(-c3ccc(CC(=O)Nc4ccc(C(C)(C)C#N)nc4)cc3)cn2)cn1` [Compound P-0146, N-[6-(1-cyano-1-methyl-ethyl)-3-pyridyl]-2-[4-[2-[(1-methylpyrazol-4-yl)amino]pyrimidin-5-yl]phenyl]acetamide], the IC50 (on FLT3-ITD; in assay [1]) was 0.0001 to 10 µM in each case.

Take `COc1ncc(NC(=O)Cc2ccc(-c3cnc(Nc4cn(C)cn4)nc3)cc2)cc1C(F)(F)F` [Compound P-0149, N-[6-methoxy-5-(trifluoromethyl)-3-pyridyl]-2-[4-[2-[(1-methylimidazol-4-yl)amino]pyrimidin-5-yl]phenyl]acetamide]: the IC50 (at FLT3-ITD; in assay [1]) was 0.0001 to 10 µM each time.

For the compound `Cc1ncc(NC(=O)Cc2ccc(-c3cnc(Nc4cn(C)cn4)nc3)cc2)cc1C(F)(F)F` [Compound P-0150, 2-[4-[2-[(1-methylimidazol-4-yl)amino]pyrimidin-5-yl]phenyl]-N-[6-methyl-5-(trifluoromethyl)-3-pyridyl]acetamide], the IC50 (on FLT3-ITD; in assay [1]) was 0.0001 to 10 µM in each case.

On to `Cn1cc(Nc2ncc(-c3ccc(CC(=O)Nc4cnnc(Cl)c4)cc3)cn2)cn1` [Compound P-0151, N-(6-chloropyridazin-4-yl)-2-[4-[2-[(1-methylpyrazol-4-yl)amino]pyrimidin-5-yl]phenyl]acetamide], for which the IC50 (at FLT3-ITD; in assay [1]) was 0.0001 to 10 µM each time.

As to `Cn1cc(Nc2ncc(-c3ccc(CC(=O)Nc4cccc(C(F)(F)F)n4)cc3)cn2)cn1` [Compound P-0152, 2-[4-[2-[(1-methylpyrazol-4-yl)amino]pyrimidin-5-yl]phenyl]-N-[6-(trifluoromethyl)-2-pyridyl]acetamide], the IC50 (at FLT3-ITD; in assay [1]) was 0.0001 to 10 µM each time.

With `COc1cc(NC(=O)Cc2ccc(-c3cnc(Nc4cnn(C)c4)nc3)cc2)ccn1` [Compound P-0153, N-(2-methoxy-4-pyridyl)-2-[4-[2-[(1-methylpyrazol-4-yl)amino]pyrimidin-5-yl]phenyl]acetamide], the IC50 (at FLT3-ITD; in assay [1]) was 0.0001 to 10 µM throughout.

For the compound `Cn1cc(Nc2ncc(-c3ccc(CC(=O)Nc4ccnc(S(C)(=O)=O)c4)cc3)cn2)cn1` [Compound P-0154, 2-[4-[2-[(1-methylpyrazol-4-yl)amino]pyrimidin-5-yl]phenyl]-N-(2-methylsulfonyl-4-pyridyl)acetamide], the IC50 (at FLT3-ITD; in assay [1]) was 0.0001 to 10 µM each time.

In the case of `Cn1cc(Nc2ncc(-c3ccc(CC(=O)Nc4cccc(S(C)(=O)=O)c4)cc3)cn2)cn1` [Compound P-0155, 2-[4-[2-[(1-methylpyrazol-4-yl)amino]pyrimidin-5-yl]phenyl]-N-(3-methylsulfonylphenyl)acetamide], the IC50 (at FLT3-ITD; in assay [1]) was 0.0001 to 10 µM throughout.

On to `Cn1cc(Nc2ncc(-c3ccc(CC(=O)Nc4ccc(S(C)(=O)=O)cc4)cc3)cn2)cn1` [Compound P-0156, 2-[4-[2-[(1-methylpyrazol-4-yl)amino]pyrimidin-5-yl]phenyl]-N-(4-methylsulfonylphenyl)acetamide], for which the IC50 (on FLT3-ITD; in assay [1]) was 0.0001 to 10 µM in each case.

As for `Cn1cc(Nc2ncc(-c3ccc(CC(=O)Nc4cccc(OC(F)(F)F)c4)cc3)cn2)cn1` [Compound P-0157, 2-[4-[2-[(1-methylpyrazol-4-yl)amino]pyrimidin-5-yl]phenyl]-N-[3-(trifluoromethoxy)phenyl]acetamide], the IC50 (at FLT3-ITD; in assay [1]) was 0.0001 to 10 µM in each case.

In the case of `Cn1cc(Nc2ncc(-c3ccc(CC(=O)Nc4cccc(C(C)(C)C#N)c4)cc3)cn2)cn1` [Compound P-0158, N-[3-(1-cyano-1-methyl-ethyl)phenyl]-2-[4-[2-[(1-methylpyrazol-4-yl)amino]pyrimidin-5-yl]phenyl]acetamide], the concentration for half-maximal inhibition (IC50) (at FLT3-ITD; in assay [1]) was 0.0001 to 10 µM throughout.

Turning to `Cn1cc(Nc2ncc(-c3ccc(CC(=O)NCc4ncccc4C(F)(F)F)cc3)cn2)cn1` [Compound P-0159, 2-[4-[2-[(1-methylpyrazol-4-yl)amino]pyrimidin-5-yl]phenyl]-N-[[3-(trifluoromethyl)-2-pyridyl]methyl]acetamide], the IC50 (at FLT3-ITD; in assay [1]) was 0.0001 to 10 µM each time.

Take `COc1ccccc1CNC(=O)Cc1ccc(-c2cnc(Nc3cnn(C)c3)nc2)cc1` [Compound P-0160, N-[(2-methoxyphenyl)methyl]-2-[4-[2-[(1-methylpyrazol-4-yl)amino]pyrimidin-5-yl]phenyl]acetamide]: the IC50 (on FLT3-ITD; in assay [1]) was 0.0001 to 10 µM throughout.

As to `Cn1cc(Nc2ncc(-c3ccc(CC(=O)NCc4cncc(C(F)(F)F)c4)cc3)cn2)cn1` [Compound P-0161, 2-[4-[2-[(1-methylpyrazol-4-yl)amino]pyrimidin-5-yl]phenyl]-N-[[5-(trifluoromethyl)-3-pyridyl]methyl]acetamide], the IC50 (on FLT3-ITD; in assay [1]) was 0.0001 to 10 µM throughout.

Regarding `Cn1cc(Nc2ncc(-c3ccc(CC(=O)Nc4cc(Cl)c(C5CC5)cn4)cc3)cn2)cn1` [Compound P-0164, N-(4-chloro-5-cyclopropyl-2-pyridyl)-2-[4-[2-[(1-methylpyrazol-4-yl)amino]pyrimidin-5-yl]phenyl]acetamide], the concentration for half-maximal inhibition (IC50) (at FLT3-ITD; in assay [1]) was 0.0001 to 10 µM in each case.

As to `CCn1cc(Nc2ncc(-c3ccc(CC(=O)Nc4cnc(Cl)c(C(F)(F)F)c4)cc3)cn2)cn1` [Compound P-0165, N-[6-chloro-5-(trifluoromethyl)-3-pyridyl]-2-[4-[2-[(1-ethylpyrazol-4-yl)amino]pyrimidin-5-yl]phenyl]acetamide], the IC50 (at FLT3-ITD; in assay [1]) was 0.0001 to 10 µM each time.

Turning to `CCn1cc(Nc2ncc(-c3ccc(CC(=O)Nc4cncc(C(F)(F)F)c4)cc3)cn2)cn1` [Compound P-0166, 2-[4-[2-[(1-ethylpyrazol-4-yl)amino]pyrimidin-5-yl]phenyl]-N-[5-(trifluoromethyl)-3-pyridyl]acetamide], the IC50 (on FLT3-ITD; in assay [1]) was 0.0001 to 10 µM in each case.

`Cn1cnc(Nc2ncc(-c3ccc(CC(=O)Nc4cncc(C(F)(F)F)c4)cc3)cn2)c1` [Compound P-0167]: the IC50 (at FLT3-ITD; in assay [1]) was 0.0001 to 10 µM each time.

With `Cn1cnc(Nc2ncc(-c3ccc(CC(=O)Nc4cnc(F)c(C(C)(F)F)c4)cc3)cn2)c1` [Compound P-0168, N-[5-(1,1-difluoroethyl)-6-fluoro-3-pyridyl]-2-[4-[2-[(1-methylimidazol-4-yl)amino]pyrimidin-5-yl]phenyl]acetamide], the 50% inhibitory concentration (IC50) (on FLT3-ITD; in assay [1]) was 0.0001 to 10 µM throughout.

In the case of `Cn1cnc(Nc2ncc(-c3ccc(CC(=O)Nc4cc(C(C)(F)F)ccn4)cc3)cn2)c1` [Compound P-0169, N-[4-(1,1-difluoroethyl)-2-pyridyl]-2-[4-[2-[(1-methylimidazol-4-yl)amino]pyrimidin-5-yl]phenyl]acetamide], the IC50 (at FLT3-ITD; in assay [1]) was 0.0001 to 10 µM in each case.

As for `Cn1cnc(Nc2ncc(-c3ccc(CC(=O)Nc4cnc(F)c(C(C)(F)F)c4)cc3F)cn2)c1` [Compound P-0170, N-[5-(1,1-difluoroethyl)-6-fluoro-3-pyridyl]-2-[3-fluoro-4-[2-[(1-methylimidazol-4-yl)amino]pyrimidin-5-yl]phenyl]acetamide], the IC50 (on FLT3-ITD; in assay [1]) was 0.0001 to 10 µM throughout.
